# Reference: patent US8318782B2, “Mitotic kinesin inhibitor” (Kyowa Hakko Kirin Co., Ltd., priority 2003, dated 2012)
# Biological target: T1, human Eg5 motor domain (Homo sapiens, UniProt P52732)
# T1 construct: A plasmid expressing the motor domain of human Eg5 was constructed; made in house; host or cells: Escherichia coli BL21 (DE3)
# T1 sequence (P52732 18-359 limits assumed): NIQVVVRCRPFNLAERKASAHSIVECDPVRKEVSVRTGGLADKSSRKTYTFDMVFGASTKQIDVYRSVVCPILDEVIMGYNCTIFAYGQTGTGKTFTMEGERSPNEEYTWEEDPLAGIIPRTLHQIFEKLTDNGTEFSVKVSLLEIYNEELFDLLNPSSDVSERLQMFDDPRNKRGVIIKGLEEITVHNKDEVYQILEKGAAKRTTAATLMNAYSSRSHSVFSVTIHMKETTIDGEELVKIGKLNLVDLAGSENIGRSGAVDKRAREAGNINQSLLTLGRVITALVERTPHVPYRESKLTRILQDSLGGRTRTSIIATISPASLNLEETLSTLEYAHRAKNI
# Assay: Eg5 enzyme inhibition test (2) (ATPase activity, Eg5 motor domain)
# Format: biochemical
# Conditions: human Eg5 motor domain purified sample, 30° C. for 30 minutes, absorbance at 360 nm
# Description: A recombinant human Eg5 motor domain protein was prepared by referring to the literature [Biochemistry, Vol. 35, p. […] A plasmid expressing the motor domain of human Eg5 was constructed, and transformed into Escherichia coli BL21 (DE3). The transformant was cultured at 25° C., and when OD600 reached 0.74, isopropyl-β-D-thiogalactoside was added at a final concentration of 0.5 mmol/L. The transformant was further cultured for 4 hours, and then the culture medium was centrifuged to collect the cells. The cells were suspended in a buffer and ultrasonicated, and then the sonicated solution was centrifuged to recover the supernatant. The supernatant was purified by cation exchange column chromatography to obtain a partially-purified sample. Furthermore, the partially purified sample was purified by gel filtration column chromatography to obtain a finally purified sample.
# Measurement of the ATPase activity of Eg5 was carried out by referring to the literatures EEMBO Journal, Vol. 13, p. […] Solution A was dispensed into each well of a 96-well plate as 45 μL portions. Solution B was used to serially dilute a test compound. The diluted test compound solutions in a volume of 30 μL were mixed with Solution A added beforehand in each well of the 96-well plate to start the enzymatic reaction. The enzymatic reaction was performed at 30° C. for 30 minutes.
row,SMILES,IC50 [nM]
1,CC(C)(C)C(=O)NC1=NN(C(=O)C(C)(C)C)C(CNS(C)(=O)=O)(c2ccccc2)S1 (stereo not shown) [Compound 95],≤ 2000
2,CC(C)C(=O)NC1=NN(C(=O)C(C)C)C(CCNS(C)(=O)=O)(c2ccccc2)S1 (stereo not shown) [Compound 100],≤ 2000
3,CC(C)(C)C(=O)NC1=NN(C(=O)C(C)(C)C)C(CCC(N)=O)(c2ccccc2)S1 (stereo not shown) [Compound 107],≤ 2000
4,CC(C)(C)C(=O)NC1=NN(C(=O)C(C)(C)C)C(CCC(=O)NCCO)(c2ccccc2)S1 (stereo not shown) [Compound 111],≤ 2000
5,CC(=O)NC1=NN(C(C)=O)C(C)(c2sccc2Cl)S1 (stereo not shown) [Compound 134],≤ 2000
6,CC(=O)N1N=C(N2CCCCC2=O)SC1(CNS(C)(=O)=O)c1ccccc1 (stereo not shown) [Compound 154],≤ 2000
7,C=CS(=O)(=O)NCC1(c2ccccc2)SC(NC(=O)C(C)(C)C)=NN1C(=O)C(C)(C)C (stereo not shown) [Compound 171],≤ 2000
8,CC(=O)N1N=C(NC(=O)C(C)(C)C)SC1(CNS(=O)(=O)CCN(C)C)c1ccccc1 (stereo not shown) [Compound 174],≤ 2000
9,CCNCCS(=O)(=O)NCC1(c2ccccc2)SC(NC(=O)C(C)(C)C)=NN1C(=O)C(C)(C)C (stereo not shown) [Compound 176],≤ 2000
10,CC(C)(C)C(=O)NC1=NN(C(=O)C(C)(C)C)C(CCN)(c2ccccc2)S1 (stereo not shown) [Compound 210],≤ 2000
11,CC(C)(C)C(=O)NC1=NN(C(=O)C(C)(C)C)C(CNS(=O)(=O)CCCN)(c2ccccc2)S1 (stereo not shown) [Compound 221],≤ 2000

# More lines, now with the values ahead:
row,IC50 [nM],SMILES
1,≤ 2000,CCS(=O)(=O)NCC1(c2ccccc2)SC(NC(=O)C(C)(C)C)=NN1C(=O)C(C)(C)C (stereo not shown) [Compound 97]
2,≤ 2000,CN(C)CCC1(c2ccccc2)SC(NC(=O)C(C)(C)C)=NN1C(=O)C(C)(C)C (stereo not shown) [Compound 104]
3,≤ 2000,CC(=O)N1N=C(N2CCCC2=O)SC1(CNS(C)(=O)=O)c1ccccc1 (stereo not shown) [Compound 152]
4,≤ 2000,CN(C)CCCS(=O)(=O)NCC1(c2ccccc2)SC(NC(=O)C(C)(C)C)=NN1C(=O)C(C)(C)C (stereo not shown) [Compound 238]
5,≤ 2000,CCN(C)CCS(=O)(=O)NCC1(c2ccccc2)SC(NC(=O)C(C)(C)C)=NN1C(=O)C(C)(C)C (stereo not shown) [Compound 264]
